Data published in patent publication US4211772A, “Benzopyran glycoside acetals and ketals” (Laboratoires Sarget, priority 1977, dated 1980).
Like-named read-outs stand apart in the source and are kept apart here.

How the values were obtained:
[1] = Solubilities in water; assay type: physicochemical; details: water; read-out: Solubilities in water
[2] = target: T1, Aldose Reductase (Bos taurus, UniProt P16116); assay: Inhibition of aldose reductase in vitro (enzyme from beef eye lenses, glyceraldehyde substrate); assay type: biochemical; details: in DMF solution, read-out: percentages of inhibition (aldose reductase)
T1 construct: The enzyme is extracted from beef eye lenses; from tissue; host or cells: beef eye lenses
Text: Inhibition of Aldose Reductase In Vitro
The reoxidation of NADPH coupled to the enzymatic reaction was followed spectrophotometrically at 340 nm.

[3] = test system: carragenin edema; assay: Anti-inflammatory activity: carragenin edema test; assay type: in vivo; details: for % inhibition of carragenin edema: borate buffer pH 7, 24 h; for inhibition in vivo at 35 mg/kg / inhibition in vivo at 40 mg/kg / inhibition in vivo at 75 mg/kg / inhibition in vivo at 100 mg/kg / inhibition in vivo at 200 mg/kg: Rattus norvegicus, ip
In short: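 Male Wistar EOPS rats receive 0.1 ml of 5% carragenin suspension in physiological serum into the hind-paw metatarsal muscle, with test substance given i.p. in neutralized solution at the same time. Paw edema is measured by plethysmometry at several times after carragenin and reported as % inhibition against pH-matched physiological serum controls.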

[4] = test system: capillary resistance; assay: Capillaroprotecting effects: capillary resistance; assay type: in vivo, male OFA EOPS rats
Experimental: (§1) Capillaroprotecting effects
The capillary resistance was determined by a variant of the method of Charlier et al, Arch. Inter. Physiol.

[5] = test system: capillary permeability; assay: Capillaroprotecting effects: capillary permeability; assay type: in vivo, conventional male Wistar rats
Experimental: as §1
The capillary permeability was determined by the method of Charlier et al, Arch. Inter. Physiol.

**Q.** Which results are given for `C[C@@H]1O[C@@H](OC[C@H]2O[C@@H](Oc3c(-c4ccc(O)c(O)c4)oc4cc(O)cc(O)c4c3=O)[C@H](O)[C@@H](O)[C@@H]2O)[C@@H]2OC3(CCCCC3)O[C@@H]2[C@H]1O` [No. 6, 3-O-(2,3-O,O-cyclohexylidene-6-α-L-rhamnosyl-β-D-glucosyl)-quercitin]?
**A.** solubility [1]: < 100 µg/mL; inhibition at 100 µM ([2]; 10^-4 mole/l): 93%; inhibition at 10 µM ([2]; 10^-5 mole/l): 66%; inhibition at 1 µM ([2]; 10^-6 mole/l): 10%; % inhibition of carragenin edema ([3]; 35 mg/kg i.p.): 27%; % inhibition of carragenin edema ([3]; 75 mg/kg i.p.): 21%; % inhibition of carragenin edema ([3]; 100 mg/kg i.p.): 37%; % inhibition of carragenin edema ([3]; 200 mg/kg i.p.): 0%; inhibition in vivo at 35 mg/kg ([3]; 1 h, pH 7, read-out: % inhibition of carragenin edema, 35 mg/kg i.p., borate buffer pH 7, 1 h): 32%; inhibition in vivo at 35 mg/kg ([3]; 1 h, pH 7, read-out: % inhibition of carragenin edema, 35 mg/kg i.p., borate buffer pH 7, 1 h 1/2): 23%; inhibition in vivo at 40 mg/kg ([3]; 1 h, pH 7, read-out: % inhibition of carragenin edema, 40 mg/kg i.p., borate buffer pH 7, 1 h): 23%; inhibition in vivo at 40 mg/kg ([3]; 1 h, pH 7, read-out: % inhibition of carragenin edema, 40 mg/kg i.p., borate buffer pH 7, 1 h 1/2): 11%; inhibition in vivo at 75 mg/kg ([3]; 1 h, pH 7, read-out: % inhibition of carragenin edema, 75 mg/kg i.p., borate buffer pH 7, 1 h): 9%; inhibition in vivo at 75 mg/kg ([3]; 1 h, pH 7, read-out: % inhibition of carragenin edema, 75 mg/kg i.p., borate buffer pH 7, 1 h 1/2): 3%; inhibition in vivo at 100 mg/kg ([3]; 1 h, pH 7, read-out: % inhibition of carragenin edema, 100 mg/kg i.p., borate buffer pH 7, 1 h): 20%; inhibition in vivo at 100 mg/kg ([3]; 1 h, pH 7, read-out: % inhibition of carragenin edema, 100 mg/kg i.p., borate buffer pH 7, 1 h 1/2): 9%; inhibition in vivo at 200 mg/kg ([3]; 1 h, pH 7, read-out: % inhibition of carragenin edema, 200 mg/kg i.p., borate buffer pH 7, 1 h): 19%; inhibition in vivo at 200 mg/kg ([3]; 1 h, pH 7, read-out: % inhibition of carragenin edema, 200 mg/kg i.p., borate buffer pH 7, 1 h 1/2): 2%; inhibition in vivo at 35 mg/kg ([3]; 2 h, pH 7, read-out: % inhibition of carragenin edema, 35 mg/kg i.p., borate buffer pH 7, 2 h): 33%; inhibition in vivo at 40 mg/kg ([3]; 2 h, pH 7, read-out: % inhibition of carragenin edema, 40 mg/kg i.p., borate buffer pH 7, 2 h): 7%; inhibition in vivo at 75 mg/kg ([3]; 2 h, pH 7, read-out: % inhibition of carragenin edema, 75 mg/kg i.p., borate buffer pH 7, 2 h): 14%; inhibition in vivo at 100 mg/kg ([3]; 2 h, pH 7, read-out: % inhibition of carragenin edema, 100 mg/kg i.p., borate buffer pH 7, 2 h): 1%; inhibition in vivo at 200 mg/kg ([3]; 2 h, pH 7, read-out: % inhibition of carragenin edema, 200 mg/kg i.p., borate buffer pH 7, 2 h): 4%; inhibition in vivo at 35 mg/kg ([3]; 3 h, pH 7, read-out: % inhibition of carragenin edema, 35 mg/kg i.p., borate buffer pH 7, 3 h): 9%; inhibition in vivo at 40 mg/kg ([3]; 3 h, pH 7, read-out: % inhibition of carragenin edema, 40 mg/kg i.p., borate buffer pH 7, 3 h): 2%; inhibition in vivo at 75 mg/kg ([3]; 3 h, pH 7, read-out: % inhibition of carragenin edema, 75 mg/kg i.p., borate buffer pH 7, 3 h): 17%; inhibition in vivo at 100 mg/kg ([3]; 3 h, pH 7, read-out: % inhibition of carragenin edema, 100 mg/kg i.p., borate buffer pH 7, 3 h): 2%; inhibition in vivo at 200 mg/kg ([3]; 3 h, pH 7, read-out: % inhibition of carragenin edema, 200 mg/kg i.p., borate buffer pH 7, 3 h): 0%; inhibition in vivo at 35 mg/kg ([3]; 4 h, pH 7, read-out: % inhibition of carragenin edema, 35 mg/kg i.p., borate buffer pH 7, 4 h): 7%; inhibition in vivo at 40 mg/kg ([3]; 4 h, pH 7, read-out: % inhibition of carragenin edema, 40 mg/kg i.p., borate buffer pH 7, 4 h): 5%; inhibition in vivo at 75 mg/kg ([3]; 4 h, pH 7, read-out: % inhibition of carragenin edema, 75 mg/kg i.p., borate buffer pH 7, 4 h): 0%; inhibition in vivo at 100 mg/kg ([3]; 4 h, pH 7, read-out: % inhibition of carragenin edema, 100 mg/kg i.p., borate buffer pH 7, 4 h): 10%; inhibition in vivo at 200 mg/kg ([3]; 4 h, pH 7, read-out: % inhibition of carragenin edema, 200 mg/kg i.p., borate buffer pH 7, 4 h): 8%; inhibition in vivo at 35 mg/kg ([3]; 5 h, pH 7, read-out: % inhibition of carragenin edema, 35 mg/kg i.p., borate buffer pH 7, 5 h): 10%; inhibition in vivo at 40 mg/kg ([3]; 5 h, pH 7, read-out: % inhibition of carragenin edema, 40 mg/kg i.p., borate buffer pH 7, 5 h): 2%; inhibition in vivo at 75 mg/kg ([3]; 5 h, pH 7, read-out: % inhibition of carragenin edema, 75 mg/kg i.p., borate buffer pH 7, 5 h): 7%; inhibition in vivo at 100 mg/kg ([3]; 5 h, pH 7, read-out: % inhibition of carragenin edema, 100 mg/kg i.p., borate buffer pH 7, 5 h): 15%; inhibition in vivo at 200 mg/kg ([3]; 5 h, pH 7, read-out: % inhibition of carragenin edema, 200 mg/kg i.p., borate buffer pH 7, 5 h): 9%; inhibition in vivo at 35 mg/kg ([3]; 6 h, pH 7, read-out: % inhibition of carragenin edema, 35 mg/kg i.p., borate buffer pH 7, 6 h): 14%; inhibition in vivo at 40 mg/kg ([3]; 6 h, pH 7, read-out: % inhibition of carragenin edema, 40 mg/kg i.p., borate buffer pH 7, 6 h): 0%; inhibition in vivo at 75 mg/kg ([3]; 6 h, pH 7, read-out: % inhibition of carragenin edema, 75 mg/kg i.p., borate buffer pH 7, 6 h): 13%; inhibition in vivo at 100 mg/kg ([3]; 6 h, pH 7, read-out: % inhibition of carragenin edema, 100 mg/kg i.p., borate buffer pH 7, 6 h): 5%; inhibition in vivo at 200 mg/kg ([3]; 6 h, pH 7, read-out: % inhibition of carragenin edema, 200 mg/kg i.p., borate buffer pH 7, 6 h): 1%; inhibition in vivo at 35 mg/kg ([3]; read-out: % inhibition of carragenin edema, 35 mg/kg i.p., borate buffer pH 7, 1/2 h): 26%; inhibition in vivo at 40 mg/kg ([3]; read-out: % inhibition of carragenin edema, 40 mg/kg i.p., borate buffer pH 7, 1/2 h): 28%; inhibition in vivo at 75 mg/kg ([3]; read-out: % inhibition of carragenin edema, 75 mg/kg i.p., borate buffer pH 7, 1/2 h): 29%; inhibition in vivo at 100 mg/kg ([3]; read-out: % inhibition of carragenin edema, 100 mg/kg i.p., borate buffer pH 7, 1/2 h): 23%; inhibition in vivo at 200 mg/kg ([3]; read-out: % inhibition of carragenin edema, 200 mg/kg i.p., borate buffer pH 7, 1/2 h): 14%; % of animals for which the effect is ≥ 25 u cm Hg/h ([4]; 50 mg/kg i.p.): 30%; capillary resistance, effect observed ([4]; 50 mg/kg i.p.): 19.75 ± 10.2 u cm Hg/h; % of animals for which the effect is ≥ 25 u cm Hg/h ([4]; 100 mg/kg i.p.): 40%; capillary resistance, effect observed ([4]; 100 mg/kg i.p.): 25.5 ± 13.2 u cm Hg/h; % of animals for which the effect is ≥ 25 u cm Hg/h ([4]; 200 mg/kg i.p.): 90%; capillary resistance, effect observed ([4]; 200 mg/kg i.p.): 37.75 ± 12.9 u cm Hg/h; percentage reduction of capillary permeability ([5]; 50 mg/kg i.p.): 21%; percentage reduction of capillary permeability ([5]; 100 mg/kg i.p.): 20%; percentage reduction of capillary permeability ([5]; 200 mg/kg i.p.): 23%
